Test systems include A549 NSCLC; IGROV1 ovarian; MOLT-4 leukemia; SK-MEL-28 melanoma; NCI-H460 lung; MALME-3M melanoma; SK-MEL-2 melanoma; A498 renal; UACC-62 melanoma; RXF 393 renal; 786-0 renal; TK-10 renal; BT-549 breast.
Test in all cases: DTP human tumour cell line panel, 48 h

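Values below derive from 48-hour exposures of cells grown in 96-well plates, with endpoints linearly interpolated between the two concentrations bracketing the appropriate inhibition level. TGI denotes the concentration required for complete inhibition of growth.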 Where a SMILES comes first, the peptide text is derived from it. The star is where a group is joined. Boc = CC(C)(C)OC(=O)*; Bn = c1ccc(C*)cc1

In the case of `CC(C)Cc1ccc(C(C)C(=O)N2CCN(/C=C/c3ccccc3)CC2)cc1` (configuration not stated), the total growth inhibition concentration (TGI) with A549 NSCLC amounted to 29.7 µM; with IGROV1 ovarian, 28.7 µM; in the experiment on MOLT-4 leukemia it was 23.4 µM; with SK-MEL-28 melanoma it was 32.1 µM; with NCI-H460 lung, 32.9 µM; in the experiment with MALME-3M melanoma, 30.4 µM. Besides, the concentration for total growth inhibition (TGI) is 27 µM with SK-MEL-2 melanoma, 31.8 µM with A498 renal, 26.3 µM in the experiment on UACC-62 melanoma and 30.8 µM with RXF 393 renal.
Consider `O=[N+]([O-])c1ccc2[nH]c(=S)[nH]c(=S)c2c1`, for which the TGI with A549 NSCLC, in the experiment with IGROV1 ovarian, with MOLT-4 leukemia, with SK-MEL-28 melanoma, with NCI-H460 lung and in the experiment on 786-0 renal was greater than 100 µM throughout. Also, the concentration for total growth inhibition (TGI) in the experiment with MALME-3M melanoma, with TK-10 renal, in the experiment with SK-MEL-2 melanoma, in the experiment on A498 renal, in the experiment on UACC-62 melanoma and in the experiment with RXF 393 renal was greater than 100 µM each time.
On to `O=C(O)CCCc1nc2c(n1Cc1ccccc1)C(=O)c1ccccc1C2=O`, for which the total growth inhibition concentration (TGI) in the experiment with A549 NSCLC, with IGROV1 ovarian, in the experiment on MOLT-4 leukemia, in the experiment with SK-MEL-28 melanoma, with NCI-H460 lung and in the experiment on 786-0 renal was greater than 100 µM throughout. Also, the TGI is 47 µM with MALME-3M melanoma; greater than 100 µM with TK-10 renal; 52.9 µM with SK-MEL-2 melanoma; greater than 100 µM with A498 renal; greater than 100 µM with UACC-62 melanoma.
Take `[N-]=[N+]=Nc1c([N+](=O)[O-])c(=O)n(-c2ccccc2)c2ccccc12`: the concentration for total growth inhibition (TGI) in the experiment with A549 NSCLC was greater than 100 µM; in the experiment on IGROV1 ovarian it was 88.4 µM; in the experiment on MOLT-4 leukemia, 59.1 µM; in the experiment with SK-MEL-28 melanoma, 80.5 µM; in the experiment on NCI-H460 lung it was greater than 100 µM; with 786-0 renal, 43.4 µM. The TGI with MALME-3M melanoma is 35 µM; in the experiment with TK-10 renal it was 44.2 µM; with SK-MEL-2 melanoma, 52.5 µM; in the experiment on A498 renal, greater than 100 µM; with UACC-62 melanoma, 59 µM; with RXF 393 renal, 38.9 µM.
Turning to `COc1cc2c(cc1OC)C(CC1=C(c3ccccc3)CN3CCc4cc(OC)c(OC)cc4C3C1)NCC2` (configuration not stated), the TGI in the experiment with A549 NSCLC turned out to be 33.5 µM; in the experiment with IGROV1 ovarian, 32.8 µM; in the experiment on MOLT-4 leukemia it was 29.5 µM; with SK-MEL-28 melanoma it was 28.5 µM; with NCI-H460 lung it was 37.9 µM; with 786-0 renal it was 29.5 µM. The concentration for total growth inhibition (TGI) in the experiment on MALME-3M melanoma is 35.1 µM; with TK-10 renal, 32.7 µM; with SK-MEL-2 melanoma, 37.1 µM; in the experiment with A498 renal, 33.2 µM; with UACC-62 melanoma, 36.3 µM; with RXF 393 renal, 17.6 µM.
Take `O=C(N/N=C(\c1ccccc1)c1ccccn1)NC1CCCCC1`: the TGI in the experiment with A549 NSCLC, in the experiment on IGROV1 ovarian, with MOLT-4 leukemia, in the experiment on SK-MEL-28 melanoma, with NCI-H460 lung and with 786-0 renal was greater than 100 µM in each case. Also, the TGI in the experiment on MALME-3M melanoma, in the experiment with BT-549 breast, with TK-10 renal, in the experiment with SK-MEL-2 melanoma and in the experiment with UACC-62 melanoma was greater than 100 µM in each case.
For the molecule `CC1(C)[C@@H](Cn2ccc(=O)[nH]c2=O)CC[C@@]1(C)CO`, the total growth inhibition concentration (TGI) in the experiment on A549 NSCLC, in the experiment on SK-MEL-28 melanoma, in the experiment on 786-0 renal, in the experiment on TK-10 renal, in the experiment with SK-MEL-2 melanoma and in the experiment on A498 renal was greater than 100 µM in each case. For the same molecule, the concentration for total growth inhibition (TGI) in the experiment with UACC-62 melanoma and in the experiment on RXF 393 renal was greater than 100 µM in each case.
Regarding `COC[C@@H](N=CC(C)(C)C)C(C)C`, the TGI in the experiment on A549 NSCLC, with IGROV1 ovarian, with MOLT-4 leukemia, in the experiment on SK-MEL-28 melanoma, in the experiment with NCI-H460 lung and in the experiment with 786-0 renal was greater than 100 µM throughout. The TGI in the experiment with MALME-3M melanoma, in the experiment with TK-10 renal, in the experiment with SK-MEL-2 melanoma, in the experiment with A498 renal, in the experiment on UACC-62 melanoma and with RXF 393 renal was greater than 100 µM throughout.
In the case of `CCCC(=O)OCC1OC(n2ccc(N)nc2=O)C(OC(=O)CCC)C1OC(=O)CCC` (configuration not stated), the TGI in the experiment on A549 NSCLC was greater than 100 µM; in the experiment on IGROV1 ovarian it was greater than 100 µM; with MOLT-4 leukemia, 66.9 µM; with SK-MEL-28 melanoma it was greater than 95.2 µM; in the experiment on NCI-H460 lung it was greater than 100 µM; in the experiment on MALME-3M melanoma it was greater than 100 µM. For the same molecule, the TGI with SK-MEL-2 melanoma, in the experiment on A498 renal, in the experiment on UACC-62 melanoma and in the experiment on RXF 393 renal was greater than 100 µM throughout.
With `COC(=O)C(CC(C)C)NC(=O)C(C)NC(=O)C(Cc1ccc(OCc2ccccc2)cc1)NC(=O)C(COCc1ccccc1)NC(=O)OC(C)(C)C` (configuration not stated) (Boc-S(Bn)Y(Bn)AL-OMe; configuration not given here), the TGI in the experiment with A549 NSCLC, in the experiment on IGROV1 ovarian, in the experiment on MOLT-4 leukemia, in the experiment on SK-MEL-28 melanoma, in the experiment with NCI-H460 lung and in the experiment with 786-0 renal was greater than 100 µM throughout. Moreover, the total growth inhibition concentration (TGI) with MALME-3M melanoma, in the experiment on BT-549 breast, with TK-10 renal, in the experiment with UACC-62 melanoma and in the experiment on RXF 393 renal was greater than 100 µM in each case.
With `CCOC(=O)Nc1[nH]cc(-c2ccccc2)c1C#N`, the concentration for total growth inhibition (TGI) in the experiment with A549 NSCLC, with IGROV1 ovarian, with MOLT-4 leukemia, in the experiment on SK-MEL-28 melanoma, in the experiment on 786-0 renal and in the experiment on MALME-3M melanoma was greater than 100 µM each time. Moreover, the total growth inhibition concentration (TGI) with TK-10 renal, with SK-MEL-2 melanoma, in the experiment with A498 renal and in the experiment on UACC-62 melanoma was greater than 100 µM each time.
As for `CC(=O)Nc1ccc(N=Nc2c(O)c(S(=O)(=O)O)cc3cc(S(=O)(=O)O)ccc23)cc1`, the TGI with A549 NSCLC, in the experiment with IGROV1 ovarian, with SK-MEL-28 melanoma, in the experiment on 786-0 renal, in the experiment with MALME-3M melanoma and with BT-549 breast was greater than 100 µM each time. The TGI in the experiment with TK-10 renal, in the experiment with SK-MEL-2 melanoma, in the experiment on UACC-62 melanoma and with RXF 393 renal was greater than 100 µM each time.
Turning to `COc1cc(C2C3C=CC=C4CC=CC(=C43)C3CCC(=O)N32)cc(OC)c1OC` (configuration not stated), the total growth inhibition concentration (TGI) with A549 NSCLC, in the experiment on IGROV1 ovarian, in the experiment with MOLT-4 leukemia, with SK-MEL-28 melanoma, with NCI-H460 lung and in the experiment with 786-0 renal was greater than 100 µM throughout. Further, the TGI in the experiment with TK-10 renal, with SK-MEL-2 melanoma, with A498 renal and with UACC-62 melanoma was greater than 100 µM in each case.
Consider `c1ccc(N=C(N2CCCC2)N(CCN2CCCC2)c2ccccc2)cc1`, for which the TGI was greater than 100 µM with A549 NSCLC; greater than 100 µM in the experiment on IGROV1 ovarian; greater than 100 µM in the experiment on MOLT-4 leukemia; greater than 100 µM in the experiment with SK-MEL-28 melanoma; 75.8 µM with NCI-H460 lung; greater than 100 µM with 786-0 renal. Further, the total growth inhibition concentration (TGI) was greater than 100 µM in the experiment with MALME-3M melanoma; 84.5 µM in the experiment on BT-549 breast; greater than 100 µM in the experiment with TK-10 renal; greater than 100 µM in the experiment on SK-MEL-2 melanoma; greater than 100 µM in the experiment with UACC-62 melanoma.
As for `COc1cccc(C(=O)Oc2ccc(OS(=O)(=O)c3ccc(C)cc3)cc2)c1C#N`, the TGI in the experiment on A549 NSCLC, with IGROV1 ovarian, with MOLT-4 leukemia, in the experiment on SK-MEL-28 melanoma, with NCI-H460 lung and in the experiment with 786-0 renal was greater than 100 µM in each case. Besides, the concentration for total growth inhibition (TGI) in the experiment on MALME-3M melanoma, with TK-10 renal, in the experiment with SK-MEL-2 melanoma, in the experiment on UACC-62 melanoma and in the experiment on RXF 393 renal was greater than 100 µM in each case.
With `CN(CCSCCN(C)C(=O)OC(C)(C)C)C(=O)OC(C)(C)C`, the total growth inhibition concentration (TGI) in the experiment on A549 NSCLC, in the experiment on IGROV1 ovarian, in the experiment with MOLT-4 leukemia, in the experiment with SK-MEL-28 melanoma, in the experiment on NCI-H460 lung and in the experiment on 786-0 renal was greater than 100 µM in each case. For the same molecule, the concentration for total growth inhibition (TGI) in the experiment with MALME-3M melanoma, in the experiment on BT-549 breast, with TK-10 renal, with SK-MEL-2 melanoma and in the experiment on UACC-62 melanoma was greater than 100 µM each time.
With `NC(N)=NS(=O)(=O)c1ccc(NNc2c3ccccc3nc3c(C(=O)Nc4ccc(S(=O)(=O)Nc5ncccn5)cc4)cccc23)cc1`, the total growth inhibition concentration (TGI) was greater than 100 µM with A549 NSCLC; 44.6 µM in the experiment on IGROV1 ovarian; greater than 100 µM with MOLT-4 leukemia; greater than 100 µM in the experiment on SK-MEL-28 melanoma; greater than 100 µM in the experiment with NCI-H460 lung; greater than 100 µM in the experiment on 786-0 renal. The TGI was 67.8 µM in the experiment with MALME-3M melanoma; greater than 100 µM with SK-MEL-2 melanoma; greater than 100 µM in the experiment on A498 renal; 48.2 µM in the experiment with UACC-62 melanoma; greater than 100 µM in the experiment with RXF 393 renal.
As for `COc1ccc(/C=C2\CCNC2=O)cc1`, the TGI in the experiment on A549 NSCLC, in the experiment on IGROV1 ovarian, in the experiment with MOLT-4 leukemia, with SK-MEL-28 melanoma, in the experiment on NCI-H460 lung and with MALME-3M melanoma was greater than 100 µM each time. For the same molecule, the TGI with SK-MEL-2 melanoma, in the experiment with A498 renal and with UACC-62 melanoma was greater than 100 µM in each case.

The record behind these values is PubChem BioAssay (NCI).
